Values of other authors, collected in patent CN117800914A, “一种抗SARS-CoV-2病毒奥密克戎突变种抑制剂” (Second Military Medical University SMMU, priority 2023, dated 2024).

Tested on: COVID-19
Settings: early use, cited from earlier work

Row | SMILES | reduction of risk of severe COVID-19 | reduction of risk of hospitalization/death (in words) (mild to moderate patients at risk of progression)
1 | CCC(CC)COC(=O)[C@H](C)N[P@](=O)(OC[C@H]1O[C@@](C#N)(c2ccc3c(N)ncnn23)[C@H](O)[C@@H]1O)Oc1ccccc1 [瑞德西韦] | 87% | 
2 | CC(C)C(=O)OC[C@H]1O[C@@H](n2ccc(NO)nc2=O)[C@H](O)[C@@H]1O [莫那匹韦] |  | 可降低住院/死亡风险
